# Earlier results, collected in paper PMC7395068, “The evolution of strategies to minimise the risk of human drug-induced liver injury (DILI) in drug discovery and development” (Archives of Toxicology, 2020).
# Read-outs that look alike come from different tables or passages of the source.
# How the values were obtained:
# [1] = system: isolated mouse liver mitochondria; conditions: cited from earlier work
# [2] = cited from earlier work
# [3] = ref Chen 2016; cited from earlier work
# [4] = system: primary human hepatocytes, NIH3T3 fibroblasts, BSEP, CYP3A4; conditions: cited from earlier work
# [5] = system: THLE or HepG2 cells, isolated mitochondria, BSEP; conditions: cited from earlier work
# human hepatocytes = conditions: cited from earlier work
# [6] = In vitro Assay, ref Porceddu 2012
# [7] = isolated mouse liver mitochondria, EC20<=2uM, ref Porceddu 2012
# [8] = In vitro Assay, ref Schadt 2015
Compound,"in vitro data EC2<=1x Cmax [1, 6]","in vitro data EC20<=2uM [1, 6]",In vivo DILI ([2]; ref Porceddu 2012),other results
Nc1c(Br)cc(Br)cc1CN[C@H]1CC[C@H](O)CC1 [Ambroxol],-VE,,,
Cc1cc(=O)n(-c2ccccc2)n1C [Antipyrine],+VE,-VE,,In vivo DILI ([2]; in vivo): -VE
O=C(/C=C/c1ccc(O)c(O)c1)c1ccc(O)cc1O [Butein],,,,"in vitro data EC20<=2uM [1, 7]: +VE"
COc1cc(CNC(=O)CCCC/C=C/C(C)C)ccc1O [Capsaicin],-VE,+VE,-VE,
O=P(O)(O)C(Cl)(Cl)P(=O)(O)O [Clodronate],-VE,-VE,-VE,
COc1cc(/C=C/C(=O)CC(=O)/C=C/c2ccc(O)c(OC)c2)ccc1O [Curcumin],-VE,,,
Clc1ccc(COC(Cn2ccnc2)c2ccc(Cl)cc2Cl)cc1 (centres unmarked) [Econazole],+VE,+VE,+VE,
CCOC(=O)c1ccc(O)cc1 [Ethyl paraben],,,,in vitro data EC20<=2uM [1]: -VE
O=C(O)c1ccccc1Nc1cccc(C(F)(F)F)c1 [Flufenamic acid],+VE,+VE,+VE,
O=C(O)c1cc(O)c(O)c(O)c1 [Gallic acid],+VE,,,
Cc1cc2c(C(C)C)c(O)c(O)c(C=O)c2c(O)c1-c1c(C)cc2c(C(C)C)c(O)c(O)c(C=O)c2c1O [Gossypol],,+VE,+VE,
O=C(O)c1nn(Cc2ccc(Cl)cc2Cl)c2ccccc12 [Lonidamine],+VE,+VE,+VE,
CCOC(=O)[N-]c1cn(N2CCOCC2)n[o+]1 [Molsidomine],-VE,-VE,-VE,
CO[C@]12C[C@@H](COC(=O)c3cncc(Br)c3)CN(C)[C@@H]1Cc1cn(C)c3cccc2c13 [Nicergoline],-VE,+VE,-VE,
Oc1cc(O)cc(O)c1 [Phloroglucinol],,,,"in vitro data EC20<=2uM [1, 7]: -VE"
Oc1ccc(/C=C/c2cc(O)cc(O)c2)cc1 [Resveratrol],-VE,,,
O=C1NS(=O)(=O)c2ccccc21 [Saccharin],+VE,-VE,+VE,
OC[C@H]1O[C@@](CO)(O[C@H]2O[C@H](CO)[C@@H](O)[C@H](O)[C@H]2O)[C@@H](O)[C@@H]1O [Sucrose],,,,in vitro data EC20<=2uM [1]: -VE
Cc1c(Cl)cccc1Nc1ccccc1C(=O)O [Tolfenamic acid],+VE,+VE,+VE,

Compound,"in vitro data EC2<=1x Cmax [1, 6]","in vitro data EC20<=2uM [1, 6]",In vivo DILI ([2]; ref Porceddu 2012),other results
C[C@@H]1O[C@@H](OC[C@H]2O[C@@H](Oc3c(-c4ccc(OCCO)c(OCCO)c4)oc4cc(OCCO)cc(O)c4c3=O)[C@H](O)[C@@H](O)[C@@H]2O)[C@H](O)[C@H](O)[C@H]1O [Troxerutin],-VE,+VE,-VE,
CC1(C)S[C@@H]2[C@H](NC(=O)[C@H](N)c3ccccc3)C(=O)N2[C@H]1C(=O)O [ampicillin],+VE,,,
O=[As]O[As]=O (centres unmarked) [arsenic trioxide],-VE,+VE,+VE,"DILI +VE (5-8), DILI -VE (-4) [3]: -VE; DILI severity category [3]: Ambiguous DILI-concern"
C=CC1=C(C(=O)O)N2C(=O)[C@@H](NC(=O)/C(=N\OCC(=O)O)c3csc(N)n3)[C@H]2SC1 [cefixime],+VE,-VE,+VE,"DILI +VE (5-8), DILI -VE (-4) [3]: -VE; DILI severity category [3]: Ambiguous DILI-concern"
O=C(O)CCCc1ccc(N(CCCl)CCCl)cc1 [chlorambucil],+VE,+VE,+VE,"DILI +VE (5-8), DILI -VE (-4) [3]: +VE; DILI severity category [3]: vLess-DILI-Concern"
COc1cc2c(c(OC)c1OC)-c1ccc(OC)c(=O)cc1[C@@H](NC(C)=O)CC2 [colchicine],,,,Cellular toxicity (3T3 cells) [4]: +VE; Combined Assay [4]: -VE; GSH adduct HML [4]: -VE; Hepatocyte cellular toxicity [4]: -VE; MitoTox 3T3 [4]: -VE; TDI CYP3A4 [4]: -VE; hBSEP inhibition [4]: -VE; Partition Hybrid HRM Score [5]: -VE; Structural based (HCI) (human hepatocytes): -VE
COc1cccc2c1C(=O)c1c(O)c3c(c(O)c1C2=O)C[C@@](O)(C(C)=O)C[C@@H]3O[C@H]1C[C@H](N)[C@H](O)[C@H](C)O1 [daunorubicin],+VE,+VE,+VE,"DILI +VE (5-8), DILI -VE (-4) [3]: -VE; DILI severity category [3]: vNo-DILI-Concern"
CC1=NS(=O)(=O)c2cc(Cl)ccc2N1 [diazoxide],+VE,-VE,-VE,"DILI +VE (5-8), DILI -VE (-4) [3]: -VE; DILI severity category [3]: Ambiguous DILI-concern"
C[C@H]1O[C@@H](O[C@H]2[C@@H](O)C[C@H](O[C@H]3[C@@H](O)C[C@H](O[C@H]4CC[C@@]5(C)[C@H](CC[C@@H]6[C@@H]5C[C@@H](O)[C@]5(C)[C@@H](C7=CC(=O)OC7)CC[C@]65O)C4)O[C@@H]3C)O[C@@H]2C)C[C@H](O)[C@@H]1O [digoxin],,,,"Cellular toxicity (3T3 cells) [4, 8]: -VE; Combined Assay [4, 8]: -VE; GSH adduct HML [4, 8]: -VE; Hepatocyte cellular toxicity [4, 8]: -VE; MitoTox 3T3 [4, 8]: -VE; TDI CYP3A4 [4, 8]: -VE; hBSEP inhibition [4, 8]: -VE; Ro2 Hybrid HRM Score ([5]; In vitro Assay, ref Aleo 2019): -VE; Partition Hybrid HRM Score [5]: -VE; Structural based (HCI) (human hepatocytes; In vitro Assay, ref Xu 2008): -VE"
Cc1c(N(C)CS(=O)(=O)[O-])c(=O)n(-c2ccccc2)n1C.[Na+] [dipyrone],,,,in vitro data EC20<=2uM [1]: +VE
O=c1c(-c2ccc(O)cc2)coc2cc(O)cc(O)c12 [genistein],,,,in vitro data EC20<=2uM [1]: +VE; In vivo DILI ([2]; in vivo): -VE
[Cl][Mn][Cl] [manganese chloride],-VE,-VE,-VE,
Cc1cn(-c2cc(NC(=O)c3ccc(C)c(Nc4nccc(-c5cccnc5)n4)c3)cc(C(F)(F)F)c2)cn1 [nilotinib],+VE,,,
Cc1cc2nc3c(=O)[nH]c(=O)nc-3n(C[C@H](O)[C@H](O)[C@H](O)CO)c2cc1C [riboflavin],-VE,,,
CC[C@H]1OC(=O)[C@H](C)[C@@H](O[C@H]2C[C@@](C)(OC)[C@@H](O)[C@H](C)O2)[C@H](C)[C@@H](O[C@@H]2O[C@H](C)C[C@H](N(C)C)[C@H]2O)[C@](C)(O)C[C@@H](C)/C(=N\OCOCCOC)[C@H](C)[C@@H](O)[C@]1(C)O [roxithromycin],+VE,-VE,+VE,
NCCS(=O)(=O)O [taurine],,,,"in vitro data EC20<=2uM [1, 7]: -VE"
CC[C@H]1OC(=O)[C@H](C)C(=O)[C@H](C)[C@@H](O[C@@H]2O[C@H](C)C[C@H](N(C)C)[C@H]2O)[C@](C)(OC)C[C@@H](C)C(=O)[C@H](C)[C@H]2N(CCCCn3cnc(-c4cccnc4)c3)C(=O)O[C@]12C [telithromycin],,,,"DILI +VE (5-8), DILI -VE (-4) [3]: +VE; DILI severity category [3]: vMost-DILI-Concern; Partition Hybrid HRM Score ([5]; In vitro Assay, ref Aleo 2019): +VE; Ro2 Hybrid HRM Score ([5]; In vitro Assay, ref Aleo 2019): +VE; Structural based (HCI) (human hepatocytes; In vitro Assay, ref Xu 2008): +VE; In vivo DILI ([2]; ref Aleo 2019): +VE; In vivo DILI ([2]; ref Xu 2008): +VE"
CCCc1nc2c(C)cc(-c3nc4ccccc4n3C)cc2n1Cc1ccc(-c2ccccc2C(=O)O)cc1 [telmisartan],,,,"DILI +VE (5-8), DILI -VE (-4) [3]: +VE; DILI severity category [3]: vLess-DILI-Concern; Cellular toxicity (3T3 cells) [4]: -VE; Combined Assay [4]: +VE; GSH adduct HML [4]: -VE; Hepatocyte cellular toxicity [4]: +VE; MitoTox 3T3 [4]: -VE; TDI CYP3A4 [4]: -VE; hBSEP inhibition [4]: +VE; Partition Hybrid HRM Score ([5]; In vitro Assay, ref Aleo 2019): +VE; Ro2 Hybrid HRM Score ([5]; In vitro Assay, ref Aleo 2019): +VE; Structural based (HCI) (human hepatocytes; In vitro Assay, ref Xu 2008): -VE; In vivo DILI ([2]; ref Aleo 2019): +VE; In vivo DILI ([2]; ref Schadt 2015): -VE; In vivo DILI ([2]; ref Xu 2008): -VE"
